# Measured values: patent US20090270442A1, “POLYMORPHS OF HYDROCHLORIDE SALT OF 5-(3-(ETHYLSULFONYL)PHENYL)-3,8-DIMETHYL-N-(1-METHYLPIPERIDIN-4-YL)-9H-PYRIDO[2,3-B]INDOLE-7-CARBOXAMIDE AND METHODS OF USE THEREFOR” (TAKEDA PHARMACEUTICAL COMPANY LIMITED, priority 2008, published 2009)
# Experiment: DI water slurry during the concurrent process control screen
# Assay type: physicochemical
# Settings: several hours (2-24 hours)
structure (smiles),measurement,value
CCS(=O)(=O)c1cccc(-c2cc(C(=O)NC3CCN(C)CC3)c(C)c3[nH]c4ncc(C)cc4c23)c1 [Form B],form isolated after slurry in DI water,Form A was isolated
